We go through one molecule from patent US20070093465A1, “Cephem compound” (priority 2003, published 2007).

The term MIC denotes the smallest concentration in the dilution series that meets the test's criterion for growth inhibition. A higher MIC goes with weaker potency.

What all share (assay): Bioactivity: growth inhibition / minimal inhibitory concentration in liquid culture
Common to all, as to format: cell-based

Assay [1] deals with Micrococcus luteus DSM 348. Conditions: DSM348, 48 h, M. luteus DSM 348, liquid 2x TY, microtiterplates incubated 2 days at 25 degrees Celsius, 550 rpm. From the text: (§1) The adipoyl-7-amino-3-carbamoyloxymethyl-3-cephem-4-carboxylic acid prepared according to Example 3 was used to evaluate its activity versus different bacteria. Bacteria used were: Escherichia coli ESS [xxxref komt nogxx], Micrococcus luteus DSM 348 [Andrade, A. C., Van Nistelrooy, J. G. M., Peery, R. B., Skatrud, P. L., De Waard, M. A., 2000, The role of ABC transporters from Aspergillus nidulans in protection against cytotoxic agents and in antibiotic production] and Bacillus subtilis ATCC 6633 [xxxref komt nogxx] The bacteria were grown overnight in liquid 2× TY [xxxref komt nogxx] at 37 degrees and 280 rotations per minute and subsequently diluted 1000-fold in fresh medium. Two ml deep-well microtiterplates were inoculated with 1 ml of the diluted bacterial cultures and different concentrations of adipoyl-7-amino-3-carbamoyloxymethyl-3-cephem-4-carboxylic acid (adipoyl-ACCA or Ad-ACCA) were added to individual wells wells. As control several other active and less-active b-lactams were used: 6-APA, Adipoyl-6-APA, 7-ADCA, adipoyl-7-ADCA, 7-ACA, cephalosporinC and cefuroxime. The microtiterplates were incubated for 2 days at 25 degrees Celsius and 550 rotations per minute.
(§2) The results for growth inhibition by adipoyl-7-ADCA, adipoyl-ACCA and cefuroxime are summarized in FIGS. 14 (B. subtilis), 15 (E. coli) and 16 (M. luteus).
(§3) The minimal inhibitory concentrations of adipoyl-7-amino-3-carbamoyloxymethyl-3-cephem-4-carboxylic acid for B. subtilis ATCC 6633, E. coli ESS and M. luteus DSM 348 were 4, 7 and 7 uM, respectively.

Assay [2] relates to Bacillus subtilis ATCC 6633. The following applies: ATCC6633, 48 h, B. subtilis ATCC 6633, liquid 2x TY, microtiterplates incubated 2 days at 25 degrees Celsius, 550 rpm.
From the text: as §1, §2, §3

The next assay deals with Escherichia coli ESS. Conditions: 48 h, E. coli ESS, liquid 2x TY, microtiterplates incubated 2 days at 25 degrees Celsius, 550 rpm.
From the text: as §1, §2, §3

Values after ≈ are worked out from the molar mass of the structure shown.

For the molecule `NC(=O)OCC1=C(C(=O)O)N2C(=O)[C@@H](NC(=O)CCCCC(=O)O)[C@H]2SC1` [adipoyl-7-amino-3-carbamoyloxymethyl-3-cephem-4-carboxylic acid], the figures for the MIC (in assay [1]; in assay [2]; with Escherichia coli ESS) were 7 µM (≈ 2.81 µg/mL), 4 µM (≈ 1.61 µg/mL) and 7 µM (≈ 2.81 µg/mL), respectively.
